The source of these data is patent US20100003246A1, “Novel heterocyclic compounds and uses therof” (priority 2008, published 2010).

In this experiment the target is T1, b-Raf(V600E) (Homo sapiens, UniProt P15056, V600E).
T1 construct: made in house
Description: Raf/Mek Amplified Luminescence Proximity Homogeneous Assay (Alpha Screen), b-Raf(V600E). The following applies: mutant b-Raf(V600E), read-out: mut-b-RAF (IC50 in uM). It is filed as biochemical. In short, it runs like this: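 Active b-Raf(V600E) (~4 pM) pre-incubated 60 min at room temperature with compound and kinase-dead biotinylated Mek (~10 nM) in Tris pH 7.5, MgCl2, BSA, DTT; ATP-started reaction ran 3 h, EDTA-stopped. Phospho-MEK detected by anti-p-MEK AlphaScreen luminescence; IC50 by non-linear regression.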

T1 sequence (P15056 whole entry V600E): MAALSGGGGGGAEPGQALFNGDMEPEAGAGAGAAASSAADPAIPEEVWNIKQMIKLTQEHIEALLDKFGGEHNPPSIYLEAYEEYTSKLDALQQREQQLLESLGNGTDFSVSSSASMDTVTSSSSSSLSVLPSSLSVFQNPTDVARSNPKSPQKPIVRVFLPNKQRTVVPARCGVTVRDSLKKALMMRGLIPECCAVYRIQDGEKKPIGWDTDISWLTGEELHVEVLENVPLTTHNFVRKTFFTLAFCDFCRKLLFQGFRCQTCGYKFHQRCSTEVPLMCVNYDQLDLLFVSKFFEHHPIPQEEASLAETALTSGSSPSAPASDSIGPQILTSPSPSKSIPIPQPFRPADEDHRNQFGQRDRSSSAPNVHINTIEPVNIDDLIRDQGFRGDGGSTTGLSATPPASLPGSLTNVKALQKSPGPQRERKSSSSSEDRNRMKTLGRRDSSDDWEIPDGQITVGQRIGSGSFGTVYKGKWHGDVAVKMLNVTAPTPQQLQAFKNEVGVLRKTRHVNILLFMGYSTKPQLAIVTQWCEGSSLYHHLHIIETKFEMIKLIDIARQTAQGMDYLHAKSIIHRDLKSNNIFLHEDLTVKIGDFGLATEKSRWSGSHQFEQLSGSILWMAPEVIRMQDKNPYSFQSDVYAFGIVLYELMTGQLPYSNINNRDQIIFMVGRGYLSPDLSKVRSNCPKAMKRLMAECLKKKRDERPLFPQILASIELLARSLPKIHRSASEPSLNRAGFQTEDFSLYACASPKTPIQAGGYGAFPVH

As a reminder, the IC50 is the concentration needed to halve the response being measured. For `COCC(=O)N[C@@H](C)CNc1nccc(-c2[nH]c(C(C)(C)C)nc2-c2cnc(N)c(OC)c2)n1` [Compound 205, (S)-N-(1-(4-(4-(6-amino-5-methoxypyridin-3-yl)-2-tert-butyl-1H-imidazol-5-yl)pyrimidin-2-ylamino)propan-2-yl)-2-methoxyacetamide], the IC50 was found to be 0.0004 µM.
With `COc1cc(Nc2nccc(-c3[nH]c(C(C)C)nc3-c3cnc(N)c(OC)c3)n2)ccn1` [Compound 231, 4-(4-(6-amino-5-methoxypyridin-3-yl)-2-isopropyl-1H-imidazol-5-yl)-N-(2-methoxypyridin-4-yl)pyrimidin-2-amine], the IC50 was 0.0002 µM.
Next, `COc1nc(-c2[nH]c(-c3ccccc3)nc2-c2ccncc2)cnc1N` [Compound 39, 3-methoxy-5-(2-phenyl-4-(pyridin-4-yl)-1H-imidazol-5-yl)pyrazin-2-amine]: 0.006 µM; `COc1nc(-c2nc(C(C)(C)C)[nH]c2-c2ccnc(NC[C@H](C)NC(=O)OCC(C)C)n2)cnc1N` [Compound 239, (S)-isobutyl 1-(4-(4-(5-amino-6-methoxypyrazin-2-yl)-2-tert-butyl-1H-imidazol-5-yl)pyrimidin-2-ylamino)propan-2-ylcarbamate]: 0.0001 µM.
Next, `COc1cc(-c2nc(C(C)(C)C)[nH]c2-c2ccnc(NCC(F)(F)F)n2)cnc1N` [Compound 213, 4-(4-(6-amino-5-methoxypyridin-3-yl)-2-tert-butyl-1H-imidazol-5-yl)-N-(2,2,2-trifluoroethyl)pyrimidin-2-amine]: 0.0001 µM.
Turning to `COc1cc(-c2nc(-c3cc(F)cc(F)c3)[nH]c2-c2ccncc2)cnc1N` [Compound 78, 5-(2-(3,5-difluorophenyl)-5-(pyridin-4-yl)-1H-imidazol-4-yl)-3-methoxypyridin-2-amine], the half-maximal inhibitory concentration (IC50) was 0.001 µM.
In the case of `COc1cc(-c2nc(C(C)(C)C)[nH]c2-c2ccnc(NC[C@H](C)NC(=O)[C@@H](C)OC)n2)cnc1N` [Compound 225, (R)-N-((S)-1-(4-(4-(6-amino-5-methoxypyridin-3-yl)-2-tert-butyl-1H-imidazol-5-yl)pyrimidin-2-ylamino)propan-2-yl)-2-methoxypropanamide], the IC50 worked out at 0.0013 µM.
For `COc1cc(-c2nc(-c3ccccc3)[nH]c2-c2ccnc(NC3CC3)n2)cnc1N` [Compound 72, 4-(4-(6-amino-5-methoxypyridin-3-yl)-2-phenyl-1H-imidazol-5-yl)-N-cyclopropylpyrimidin-2-amine], the IC50 is 0.0016 µM.
For the compound `COc1cc(-c2[nH]c(C(C)(C)C)nc2-c2ccnc(N[C@@H](C)CNC(=O)[C@@H](C)OC)n2)cnc1N` [Compound 208, (R)-N-((S)-2-(4-(5-(6-amino-5-methoxypyridin-3-yl)-2-tert-butyl-1H-imidazol-4-yl)pyrimidin-2-ylamino)propyl)-2-methoxypropanamide], the IC50 amounted to 0.0014 µM.
The figure for `Cc1cc(-c2[nH]c(-c3ccc(F)cc3)nc2-c2ccncc2)cnc1N` [Compound 152, 5-(2-(4-fluorophenyl)-4-(pyridin-4-yl)-1H-imidazol-5-yl)-3-methylpyridin-2-amine] is 0.0658 µM; for `COc1cc(-c2ccc(S(=O)(=O)N3CCC[C@@H](Nc4nccc(-c5nc(-c6ccccc6)[nH]c5-c5cnc(N)c(OC)c5)n4)C3)cc2)cnc1N` [Compound 64, (R)-4-(5-(6-amino-5-methoxypyridin-3-yl)-2-phenyl-1H-imidazol-4-yl)-N-(1-(4-(6-amino-5-methoxypyridin-3-yl)phenylsulfonyl)piperidin-3-yl)pyrimidin-2-amine] it is 0.0003 µM.
Take `COc1cc(-c2[nH]c(-c3ccc(F)cc3)nc2-c2ccncc2F)cnc1N` [Compound 93, 5-(2-(4-fluorophenyl)-4-(3-fluoropyridin-4-yl)-1H-imidazol-5-yl)-3-methoxypyridin-2-amine]: the IC50 is 0.0038 µM.
Take `COCC(=O)N[C@@H](C)CNc1nccc(-c2[nH]c(-c3ccc(C(F)(F)F)cc3F)nc2-c2cnc(N)c(OC)c2)n1` [Compound 216, (S)-N-(1-(4-(6-(6-amino-5-methoxypyridin-3-yl)-2-(2-fluoro-4-(trifluoromethyl)phenyl)-1H-imidazol-5-yl)pyrimidin-2-ylamino)propan-2-yl)-2-methoxyacetamide]: the IC50 turned out to be 0.0002 µM.
Next, `COC(=O)N[C@@H](C)CNc1nccc(-c2[nH]c(C(C)(C)C)nc2-c2nc(OC)c(N)nc2C)n1` [Compound 260, (S)-methyl 1-(4-(4-(5-amino-6-methoxy-3-methylpyrazin-2-yl)-2-tert-butyl-1H-imidazol-5-yl)pyrimidin-2-ylamino)propan-2-ylcarbamate]: 0.001 µM; `COc1cc(-c2[nH]c(-c3ccccc3)nc2-c2ccnc(N[C@@H]3CCCN(S(=O)(=O)c4ccc(Cl)cc4)C3)n2)cnc1N` [Compound 58, (R)-4-(5-(6-amino-5-methoxypyridin-3-yl)-2-phenyl-1H-imidazol-4-yl)-N-(1-(4-chlorophenylsulfonyl)piperidin-3-yl)pyrimidin-2-amine]: 0.0002 µM; `COc1nc(-c2nc(C(C)(C)C)[nH]c2-c2ccnc(NC[C@H](C)NC(=O)[C@H](C)OC)n2)c(C)nc1N` [Compound 254, (S)-N-((S)-1-(4-(4-(5-amino-6-methoxy-3-methylpyrazin-2-yl)-2-tert-butyl-1H-imidazol-5-yl)pyrimidin-2-ylamino)propan-2-yl)-2-methoxypropanamide]: 0.0038 µM.
The figure for `COc1cc(-c2[nH]c(-c3cccc(-c4ccncc4)c3)nc2-c2ccncc2)cnc1N` [Compound 170, 3-methoxy-5-(4-(pyridin-4-yl)-2-(3-(pyridin-4-yl)phenyl)-1H-imidazol-5-yl)pyridin-2-amine] is 0.0002 µM; for `COc1cc(-c2nc(C(C)(C)C)n(C)c2-c2ccnc(NCC(C)C)n2)cnc1N` [Compound 228, 4-(4-(6-amino-5-methoxypyridin-3-yl)-2-tert-butyl-1-methyl-1H-imidazol-5-yl)-N-isobutylpyrimidin-2-amine] it is 0.0006 µM; for `Fc1ccc(-c2nc(-c3ccncc3)c(-c3ccnc4[nH]ccc34)[nH]2)cc1` [Compound 150, 4-(2-(4-fluorophenyl)-4-(pyridin-4-yl)-1H-imidazol-5-yl)-1H-pyrrolo[2,3-b]pyridine] it is 0.775 µM.
Regarding `c1ccc(-c2nc(-c3ccncc3)c(-c3cnc4c(n3)CCN4)[nH]2)cc1` [Compound 59, 2-(2-phenyl-4-(pyridin-4-yl)-1H-imidazol-5-yl)-6,7-dihydro-5H-pyrrolo[3,2-b]pyrazine], the half-maximal inhibitory concentration (IC50) was determined as 0.68 µM.
The figure for `COc1cc(-c2[nH]c(-c3ccc(F)c(C=O)c3)nc2-c2ccncc2)cnc1N` [Compound 148, 5-(5-(6-amino-5-methoxypyridin-3-yl)-4-(pyridin-4-yl)-1H-imidazol-2-yl)-2-fluorobenzaldehyde] is 0.0015 µM.
Next, `COc1nc(-c2nc(C(C)(C)C)[nH]c2-c2ccnc(NC[C@H](C)NC(=O)OCC(C)C)n2)c(C)nc1N` [Compound 258, (S)-isobutyl 1-(4-(4-(5-amino-6-methoxy-3-methylpyrazin-2-yl)-2-tert-butyl-1H-imidazol-5-yl)pyrimidin-2-ylamino)propan-2-ylcarbamate]: 0.0011 µM; `CCOC(=O)N[C@@H](C)CNc1nccc(-c2[nH]c(C(C)(C)C)nc2-c2nc(OC)c(N)nc2C)n1` [Compound 256, (S)-ethyl 1-(4-(4-(5-amino-6-methoxy-3-methylpyrazin-2-yl)-2-tert-butyl-1H-imidazol-5-yl)pyrimidin-2-ylamino)propan-2-ylcarbamate]: 0.0011 µM.
The figure for `COc1cc(Nc2nccc(-c3[nH]c(C(C)(C)C)nc3-c3cnc(N)c(OC)c3)n2)ccn1` [Compound 230, 4-(4-(6-amino-5-methoxypyridin-3-yl)-2-tert-butyl-1H-imidazol-5-yl)-N-(2-methoxypyridin-4-yl)pyrimidin-2-amine] is 0.0001 µM; for `COc1cc(-c2[nH]c(-c3ccc(F)cc3)nc2-c2ccnc(NCCNS(=O)(=O)C3CC3)n2)cnc1N` [Compound 98, N-(2-(4-(5-(6-amino-5-methoxypyridin-3-yl)-2-(4-fluorophenyl)-1H-imidazol-4-yl)pyrimidin-2-ylamino)ethyl)cyclopro-panesulfonamide] it is 0.0001 µM; for `COCC(=O)N[C@@H](C)CNc1nccc(-c2[nH]c(C3CC3)nc2-c2cnc(N)c(OC)n2)n1` [Compound 250, (S)-N-(1-(4-(4-(5-amino-6-methoxypyrazin-2-yl)-2-cyclopropyl-1H-imidazol-5-yl)pyrimidin-2-ylamino)propan-2-yl)-2-methoxyacetamide] it is 0.0001 µM.
For the compound `COc1cc(-c2[nH]c(C)nc2-c2ccncc2)cnc1N` [Compound 51, 3-methoxy-5-(2-methyl-4-(pyridin-4-yl)-1H-imidazol-5-yl)pyridin-2-amine], the IC50 came to 0.0196 µM.
The figure for `CNc1ncc(-c2[nH]c(-c3ccccc3)nc2-c2ccncc2)cc1OC` [Compound 43, 3-methoxy-N-methyl-5-(2-phenyl-4-(pyridin-4-yl)-1H-imidazol-5-yl)pyridin-2-amine] is 0.025 µM.
Consider `c1ccc(-c2nc(-c3ccncc3)c(-c3ccsc3)[nH]2)cc1` [Compound 57, 4-(2-phenyl-5-(thiophen-3-yl)-1H-imidazol-4-yl)pyridine], for which the half-maximal inhibitory concentration (IC50) was determined as 0.62 µM.
Next, `COc1cc(-c2nc(-c3ccc(F)cc3)[nH]c2-c2ccnc(NC[C@H](C)NS(C)(=O)=O)n2)cnc1N` [Compound 195, (S)-N-(1-(4-(4-(6-amino-5-methoxypyridin-3-yl)-2-(4-fluorophenyl)-1H-imidazol-5-yl)pyrimidin-2-ylamino)propan-2-yl)methanesulfonamide]: 0.0001 µM; `COCC(=O)N[C@@H](C)CNc1nccc(-c2[nH]c(-c3ccc(F)cc3)nc2-c2nc(OC)c(N)nc2C)n1` [Compound 252, (S)-N-(1-(4-(4-(5-amino-6-methoxy-3-methylpyrazin-2-yl)-2-(4-fluorophenyl)-1H-imidazol-5-yl)pyrimidin-2-ylamino)propan-2-yl)-2-methoxyacetamide]: 0.0024 µM.
